# Reference: US11771649B1, “Pharmaceutical lotion or salve utilizing mixed metal hydroxide antimicrobial charged particles” (Magalum LLC, priority 2021, dated 2023)
# Tested on: methicillin resistant Staphylococcus aureus
# Assay: Example XXI: wound infected with methicillin resistant Staphylococcus aureus
# Assay type: in vivo, horse
# Excerpt: A 4 year old quarter horse mare had received a 4 inch cut on the chest from an encounter with a corral fence and had developed an infection. […] At that time, a specimen was taken from the wound and sent to a diagnostic lab for identification. Treatment of the wound was then started with silver sulfa diazole. When the results were returned from the diagnostic lab, the pathogen was identified as methicillin resistant Staphylococcus aureus. At that time, salve as described in Example 4 was applied to the wound, and then reapplied twice daily.
Molecule,"state of wound (prior treatment, after two days)","state of wound (10,000 units per pound body weight injection, after 72 hours)"
"NC(=O)N/N=C/c1ccc([N+](=O)[O-])o1 [nitrofurazone ointment, nitrofurazone]",no positive result,–
penicillin,–,no improvement was again noted
